From US7132513B2, “Bifunctional chelating agent” (European Community, priority 2000, dated 2006)

Key:
[1] = complexation properties with ^213Bi; type: physicochemical; settings: non-functionalised chelating agents tested
Description: (§1) Different non-functionalised chelating agents (commercially available or readily synthesised in the laboratory) bearing aminocarboxylate groups (EDTA, DTPA, DOTA, PEPA, and HEHA) or aminophosphonate groups (EDTMP) were tested for their complexation properties with ^225Ac and ^213Bi. […] Polyaza polycarboxylic macrocycles are known to form thermodynamically stable complexes with large metal ions such as actinides and lanthanides.

[2] = complexation properties with ^225Ac; type: physicochemical; settings: compared with non-functionalised chelating agents EDTA, DTPA, DOTA, PEPA, HEHA, EDTMP
Description: as §1

chelation of ^213Bi [1]: good chelating agent
^225Ac complexation [2]: best candidate
SMILES: O=C(O)CN1CCN(CC(=O)O)CCN(CC(=O)O)CCN(CC(=O)O)CCN(CC(=O)O)CCN(CC(=O)O)CC1 [HEHA, 1,4,7,10,13,16-hexacarboxylmethyl-1,4,7,10,13,16-hexaazacyclooctadecane]
